Values quoted from earlier work as cited in patent publication US7930948B2, “Device for leaching extraction and assessment” (priority 2007, dated 2011).

Legend:
[1] = octanol/water partition coefficient; after Mackay et al. 1992
[2] = after Mackay et al. 1992

Compound | log(Kow) [1] | Aqueous Solubility [2]
C1=Cc2cccc3cccc1c23 [Acenaphthylene] | 4.07 | 
c1ccc2cc3ccccc3cc2c1 [Anthracene] | 4.54 | 0.073 µg/mL
c1ccc2cc3c(ccc4ccccc43)cc2c1 [Benzo(a)anthracene] | 5.91 | 
c1ccc2c(c1)cc1ccc3cccc4ccc2c1c34 [Benzo(a)pyren] | 6.50 | 
c1ccc2c(c1)-c1cccc3c1c-2cc1ccccc13 [Benzo(b)fluoranthene] | 6.50 | 
c1cc2ccc3ccc4ccc5cccc6c(c1)c2c3c4c56 [Benzo(g,h,i)perylene] | 6.85 | 0.00026 µg/mL
c1ccc2cc3c(cc2c1)-c1cccc2cccc-3c12 [Benzo(k)fluoranthene] | 6.84 | 0.00081 µg/mL
c1ccc2c(c1)ccc1cc3c(ccc4ccccc43)cc12 [Dibenzo(a,h)anthracene] | 7.19 | 0.0005 µg/mL
c1ccc2c(c1)-c1cccc3cccc-2c13 [Fluoranthene] | 5.22 | 
c1ccc2c(c1)Cc1ccccc1-2 [Fluorene] | 4.18 | 
c1ccc2c(c1)-c1ccc3ccc4cccc5cc-2c1c3c45 [Indeno(1,2,3-cd)pyrene] | 7.66 | 
c1ccc2ccccc2c1 [Naphthalene] |  | 34.4 µg/mL
c1ccc2c(c1)ccc1ccccc12 [Phenanthrene] |  | 1.29 µg/mL
Acenaphthene | 4.03 | 
